# Values joined by “and” are separate entries in the source; they are usually repeats but may differ in a detail not shown here. Equal entries are not always repeated.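 Interpolation was linear, between the two tested concentrations surrounding the appropriate level; five concentrations were tested over 48 hours in 96-well plates. GI50 marks 50% less growth. Definition used: TGI = concentration required for complete inhibition of growth.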
# Key:
# Assay in all cases: DTP human tumour cell line panel, 48 h
# PC-3 prostate = test system: PC-3 prostate
# MDA-MB-231 breast = test system: MDA-MB-231 breast
# BT-549 breast = test system: BT-549 breast
# MDA-MB-435 = test system: MDA-MB-435
# MCF7 breast = test system: MCF7 breast
# DU-145 prostate = test system: DU-145 prostate
SMILES,GI50 (PC-3 prostate),TGI (PC-3 prostate),GI50 (MDA-MB-231 breast),TGI (MDA-MB-231 breast),GI50 (BT-549 breast),TGI (BT-549 breast),GI50 (MDA-MB-435),TGI (MDA-MB-435),GI50 (MCF7 breast),TGI (MCF7 breast),GI50 (DU-145 prostate),TGI (DU-145 prostate)
COc1cc(C(=O)/C=C/c2sc(Cl)nc2Cl)cc(OC)c1OC,1800 nM,3.7 µM,1650 nM,3.07 µM,1.87 µM,3.6 µM,2 µM,4.11 µM,1780 nM,3.68 µM,1.8 µM,3.21 µM
Clc1cccc(Cc2cn3cc(-c4ccccc4)nc3s2)c1Cl,53700 nM,> 100 µM,3080 nM,> 100 µM,88.2 µM,> 100 µM,3.59 µM,> 100 µM,11500 nM,> 100 µM,22.4 µM,> 100 µM
O=C(NCCNc1nccc(-c2c(-c3cccc(O)c3)nc3sccn23)n1)c1ccccc1O,4360 nM,55.1 µM,2870 nM,32 µM,4.74 µM,34.9 µM,0.491 µM,12.1 µM,3270 nM,19.9 µM,5.23 µM,35.5 µM
O=c1n(CC2CO2)c(=O)n(CC2CO2)n1CC1CO1 (stereo not drawn),29200 nM,> 100 µM,> 96400 nM,> 100 µM,27.8 µM,> 100 µM,34.7 µM,> 100 µM,3680 nM,> 100 µM,3.58 µM,> 61.3 µM
NC1CCC(Nc2nc(NCc3ccc(-c4ccco4)nc3)c3ncn(C4CCCC4)c3n2)CC1 (stereo not drawn),30.7 nM,0.206 µM and 1.69 µM,13.7 nM,,0.0264 µM,0.0746 µM,0.0225 µM,1.24 µM,26.7 nM,1.22 µM,0.0426 µM,12.2 µM
c1cc2c(cc1NC1=NCCO1)CCC2,,> 10 µM,,,,,,> 10 µM,,> 10 µM,,
CNC(=O)c1cc(Oc2ccc3nc(NC(=O)Nc4ccc(Cl)c(C(F)(F)F)c4)sc3c2)ccn1,,,1430 nM,4.29 µM,2.64 µM,9.73 µM,,,,,,
C=C(CNCCO)[C@@H]1CC[C@]2(CO)CC[C@]3(C)[C@H](CC[C@@H]4[C@@]5(C)CCC(N)C(C)(C)[C@@H]5CC[C@]43C)[C@@H]12 (stereo partly drawn),2360 nM,11.2 µM,1520 nM,3.14 µM,2.07 µM,4.9 µM,1.72 µM,3.3 µM,1770 nM,3.57 µM,5.1 µM,16.6 µM
Cn1ccnc1C(=O)/C=C/c1ccc(CC(=O)Nc2ccc(Br)cc2)cc1,2870 nM,8.25 µM,4780 nM,15.6 µM,2.93 µM,6.43 µM,4.37 µM,14.8 µM,1840 nM,> 16.7 µM,3.93 µM,12.2 µM
O=C1/C(=C/c2ccc([N+](=O)[O-])cc2)COc2ccc(O)c(O)c21,1590 nM,4.53 µM,1330 nM,2.81 µM,1.44 µM,3.19 µM,1.58 µM,3.08 µM,,,1.46 µM,2.85 µM
Cc1cc(=O)[nH]c2cc3oc4ccccc4c3cc12,,> 100 µM,,> 100 µM,,> 100 µM,,> 100 µM,,> 100 µM,,> 100 µM
O=C1c2cccnc2-c2nc(-c3ccccc3[N+](=O)[O-])cc3c2c1nc1ccccc13,19500 nM,69.1 µM,3890 nM,> 100 µM,16.7 µM,73.2 µM,7.1 µM,22.2 µM,3250 nM,15.4 µM,14.9 µM,33.3 µM
COc1ccc(C2=CSc3cc(Cl)c(C)cc3S(=O)(=O)N2C(C)=O)cc1,21800 nM,82.1 µM,14500 nM,37.9 µM,29.9 µM,> 100 µM,28.6 µM,87.8 µM,46200 nM,> 100 µM,38.4 µM,> 100 µM
Oc1ccc(Cl)cc1-c1cc(-c2ccccc2Cl)[nH]n1,3020 nM,> 100 µM,1440 nM,6.29 µM,36 µM,> 100 µM,8.44 µM,> 100 µM,362 nM,> 100 µM,8.05 µM,> 100 µM
O=[N+]([O-])c1cnc(Sc2ccncn2)s1,2730 nM,17 µM,3980 nM,15.1 µM,4.84 µM,9.55 µM,2.95 µM,8.76 µM,1650 nM,3.45 µM,1.8 µM,3.22 µM
CN(C)CCCNC1=C(Cl)C(=O)c2ccccc2C1=O,3120 nM,13.2 µM,1790 nM,3.94 µM,2.14 µM,4.96 µM,1.9 µM,3.64 µM,1610 nM,3.53 µM,1.92 µM,3.64 µM
CC1=C(C(=O)Nc2ccc(F)c(Cl)c2)C(c2ccc(Cl)cc2)NC(=O)N1 (stereo not drawn),15100 nM,31.9 µM,13700 nM,27.1 µM,14.6 µM,32.6 µM,22.8 µM,56.4 µM,18400 nM,44.9 µM,15.6 µM,37 µM
CCCCCCCC(=O)SCC/C=C/[C@@H]1CC(=O)NCc2cccc(n2)C2=N[C@@](C)(CS2)C(=O)N[C@@H](C(C)C)C(=O)N1,657 nM,> 33.3 µM,2080 nM,> 33.3 µM,5.04 µM,> 33.3 µM,0.739 µM,> 33.3 µM,623 nM,> 33.3 µM,0.3 µM,> 33.3 µM
CN(C)c1ccc(-c2cc(-c3ccc(Nc4nc(Nc5ccc(Cl)cc5)nc(Nc5ccc(Cl)cc5)n4)cc3)no2)cc1,,,9660 nM,37.7 µM,9.07 µM,48.9 µM,3.33 µM,32.3 µM,2460 nM,10.7 µM,3.86 µM,16.4 µM
COC(=O)[C@@H](C)C[C@H](Cc1ccc(F)cc1)NC(=O)c1csc([C@@H](C[C@H](C(C)C)N(C)C(=O)[C@@H](NC(=O)[C@H]2CCCCN2C)C(C)C)OC(C)=O)n1,1.96 nM and 7.56 nM,> 16.7 µM,2.3 nM and 15.8 nM,,,0.0568 µM and 0.261 µM,,0.00047 µM and 0.00417 µM,,> 16.7 µM,0.000984 µM and 0.00525 µM,0.0214 µM
